Assay results from US20170094972A1, “Compounds and Compositions Having Knock-Down Activity Against Insect Pests” (priority 2015, published 2017).
Where two headings read alike, the source gives them in different places.

Key:
Assay type in all cases: in vivo
[1] = system: Anopheles stephensi; assay: 6 well plate test, knockdown after 1 hour and mortality after 24 and 48 hours; parameters: KD: unit not given here; settings: for KD: after 1 hour
Experimental: The individual wells of six (6) well tissue culture plates were treated with […] of an ethanol solution containing a test compound at a defined concentration. Once the deposits were dry, ten non-blood fed adult female Anopheles stephensi (between two to five day old) were added to each well, and sustained with a 10% sucrose solution in a cotton wool plug. Assessment of the knockdown after 1 hour (Tables B1-B10), and mortality after 24 and 48 hours (Tables B1-B4) was carried out.
(§1) In case of multiple tests, the mean value is reported.

[2] = system: female mosquitoes; assay: Tunnel study based on WHOPES tunnel tests with Hemotek membrane feeding device; settings: for mortality at 10 mg/m2: 24 h
Experimental: Based on the “WHOPES tunnel tests” (described at http://apps.who.int/iris/bitstream/10665/80270/1/9789241505277_eng.pdf), except that live guniea pig baits were replaced with a Hemotek membrane feeding device, filled with blood and kept constant at 37° C. to mimic a human host. All tests were done under standardised laboratory controlled conditions (27° C.+2° C. under subdued light). The tunnel apparatus was a 60×30×30 cm glass case open at each end and the floor was lined with wet blue roll in order to maintain humidity. A 30×30×30 cm cage, covered in untreated netting, was placed at the release end. The test nets were cut to 25×25 cm squares and fitted into cardboard frames that allow a 20×20 cm area to be exposed. Nine holes, 1 cm in diameter, were made in the netting in the pattern specified in the WHOPES test. The frames were then fitted into the tunnel one third of the way down its length. A Hemotek device, filled with blood and kept constant at 37° C. to mimic a human host, was placed in the smaller area of the glass tunnel behind the test netting, and the end of the tunnel closed with a netting screen. A human sat at the Hemotek end of the tunnels for the duration of the test. At the start of the test (13.30-14.00), 100 female mosquitoes (non-blood fed, aged 5-8 days) were introduced into the cage. Mosquitoes are free to fly in the tunnel but have to make contact with the piece of netting and locate the holes in it before passing through to reach the bait. After 7 hours (20.30-21.00) the mosquitoes were counted in each section of the tunnel. The number of mosquitoes knocked down and blood fed were recorded. Blood-feeding inhibition was assessed by comparing the proportion of blood-fed females (alive or dead) in treated and control tests. Four tunnels were run simultaneously each day, with one control containing untreated netting included with all runs. Three replicates were carried out per treatment.
as §1

[3] = system: adult female mosquitoes; assay: Bottle assay based on CDC bottle assay
Experimental: Based on the “CDC bottle assay” (described at http://www.cdc.gov/malaria/resources/pdf/fsp/ir_manual/ir_cdc_bioassay_en.pdf) 1 ml of ethanol containing a test compound at a defined concentration was added to a 250 ml glass bottle and the bottles were placed on a rolling table to coat the inner surfaces as the solvent evaporated. Once dry, twenty five non-blood fed adult female mosquitoes of the appropriate species and strains (each three day old) were aspirated from the stock culture and gently blown into the exposure bottles. The lid of the bottle was replaced and the bottle placed upright out of direct sun light under standard culture conditions, nominally 28° C. and 60-80% relative humidity.
A stopwatch was started, and the assessment of the knock-down were made after 15 mins and 60 minutes. A mosquito was said to be knocked down if it was unable to stand, following the CDC definition. The bottles were replaced in an upright position when not being assessed.
After one hour the mosquitoes were carefully removed from the bottle with an aspirator and placed in a recovery cup. The mosquitoes were supplied with a 10% sucrose solution on a cotton wool bung, and stored under culture conditions. Assessments of the mortality were made after 24 hours and 48 hours (B15).
Each treatment was replicated a minimum of four times, with the mean knockdown or mortality recorded. In each study, a set of bottles was infested with a known insecticide susceptible strain of mosquitoes from the same genera as the resistant strains.

[4] = system: Aedes aegypti; assay: 12 well plate knockdown test; settings: 1 h, read-out: Aedes aegypti 1 hour % KD
Experimental: (§2) The individual wells of a twelve (12) well tissue culture plates were treated with 100 μl of an ethanol solution containing a test compound at a defined concentration. Once the deposits were dry, five non-blood fed adult female Aedes aegypti or Anopheles stephensi (between two to five day old) were added to each well, and sustained with a 10% sucrose solution in a cotton wool plug. Assessment of the knockdown after 1 hour was carried out. Where multiple replicates of a treatment have been undertaken, the mean of those replicates is reported.

[5] = system: Anopheles stephensi; assay: 12 well plate knockdown test; settings: 1 h, read-out: Anopheles stephensi 1 hour % KD
Experimental: as §2

[6] = Table B1, Comp. (I.3) alone 0.1 ppm
[7] = Table B2, Comp. (I.3) alone 0.5 ppm
[8] = Table B3, Comp. (I.3) alone 0.5 ppm
[9] = Table B4, Comp. (I.3) alone 0.5 ppm
[10] = Table B11, Rate 10 mg/m2, 24 hours, read-out: % Mortality

Q: Which 24 hr mort [1, 6] does the source give for `NC(=O)c1cnccc1C(F)(F)F` [I.3] here?
A: 0.0

Q: What about the 48 hr mort [1, 6] of the same molecule?
A: 0.0

Q: And the KD [1, 6]?
A: 23.3

Q: What about the 24 hr mort [1, 7] of the same molecule?
A: 7.0

Q: What about the 48 hr mort [1, 7] of the same molecule?
A: 10.0

Q: What about the KD [1, 7] of the same molecule?
A: 60.0

Q: What about the 24 hr mort [1, 8] of the same molecule?
A: 0.0

Q: And the 48 hr mort [1, 8]?
A: 0.0

Q: What about the KD [1, 8] of the same molecule?
A: 73.0

Q: And the 24 hr mort [1, 9]?
A: 2.5

Q: And the 48 hr mort [1, 9]?
A: 2.5

Q: And the KD [1, 9]?
A: 17.5

Q: And the “knockdown after 1 hour” value ([1]; Table B10, Compound (I.3) alone 0.5 ppm)?
A: 0.0

Q: And the mortality at 10 mg/m2 [2, 10]?
A: 68%

Q: What about the mortality at 10 mg/m2 ([2]; Table B13, 10 mg/m2, read-out: % 24 hour mortality) of the same molecule?
A: 72.2%

Q: And the mortality at 10 mg/m2 ([2]; Table B14, 10 mg/m2, read-out: % 24 hour mortality)?
A: 68%

Q: What about the “% Blood fed” value ([2]; Table B11, Rate 10 mg/m2) of the same molecule?
A: 3%

Q: What about the “% 1 hour KD” value ([2]; Table B12, 10 mg/m2) of the same molecule?
A: 41.24%

Q: And the “% Blood fed” value ([2]; Table B12, 10 mg/m2)?
A: 3.09%

Q: And the “% Through net” value ([2]; Table B12, 10 mg/m2)?
A: 9.28%

Q: What about the “% Blood fed” value ([2]; Table B13, 10 mg/m2) of the same molecule?
A: 18.56%

Q: What about the “% Through net” value ([2]; Table B13, 10 mg/m2) of the same molecule?
A: 22.68%

Q: And the “% Blood fed” value ([2]; Table B14, 10 mg/m2)?
A: 2.9%

Q: What about the “24 hour % mort” value ([3]; Table B15, rates not given) of the same molecule?
A: 0%

Q: What about the “48 hour % mort” value ([3]; Table B15, rates not given) of the same molecule?
A: 0%

Q: What about the “% 1 hour KD” value ([3]; Table B15, rates not given) of the same molecule?
A: 86.66%

Q: What about the “% 1 hour KD” value ([3]; Table B16, 10ug/bottle) of the same molecule?
A: 100%

Q: And the “% 24 hour mortality” value ([3]; Table B16, 10ug/bottle)?
A: 0%

Q: And the pest or weed control at 0.2 ppm ([4]; Rate 0.2 PPM)?
A: 100%

Q: What about the pest or weed control at 2 ppm ([4]; Rate 2 PPM) of the same molecule?
A: 100%

Q: And the pest or weed control at 20 ppm ([4]; Rate 20 PPM)?
A: 100%

Q: And the pest or weed control at 200 ppm ([4]; Rate 200 PPM)?
A: 100%

Q: And the pest or weed control at 0.2 ppm ([5]; Rate 0.2 PPM)?
A: 20%

Q: And the pest or weed control at 2 ppm ([5]; Rate 2 PPM)?
A: 20%

Q: And the pest or weed control at 20 ppm ([5]; Rate 20 PPM)?
A: 100%

Q: And the pest or weed control at 200 ppm ([5]; Rate 200 PPM)?
A: 100%

Q: For `CC1(C)C(C=C(Cl)Cl)C1C(=O)OCc1cccc(Oc2ccccc2)c1` (stereo not shown) [Permethrin], which 24 hr mort ([1]; Table B1, 0.0625 ppm alone) is on record?
A: 0.0

Q: And the 48 hr mort ([1]; Table B1, 0.0625 ppm alone)?
A: 0.0

Q: And the KD ([1]; Table B1, 0.0625 ppm alone)?
A: 0.0

Q: What about the 24 hr mort ([1]; Table B1, 0.125 ppm alone) of the same molecule?
A: 3.3

Q: What about the 48 hr mort ([1]; Table B1, 0.125 ppm alone) of the same molecule?
A: 0.0

Q: What about the KD ([1]; Table B1, 0.125 ppm alone) of the same molecule?
A: 0.0

Q: What about the 24 hr mort ([1]; Table B1, 0.25 ppm alone) of the same molecule?
A: 16.7

Q: And the 48 hr mort ([1]; Table B1, 0.25 ppm alone)?
A: 20.0

Q: And the KD ([1]; Table B1, 0.25 ppm alone)?
A: 0.0

Q: And the 24 hr mort ([1]; Table B1, 0.5 ppm alone)?
A: 23.3

Q: What about the 48 hr mort ([1]; Table B1, 0.5 ppm alone) of the same molecule?
A: 30.0

Q: What about the KD ([1]; Table B1, 0.5 ppm alone) of the same molecule?
A: 0.0

Q: What about the 24 hr mort ([1]; Table B1, 1 ppm alone) of the same molecule?
A: 40.0

Q: What about the 48 hr mort ([1]; Table B1, 1 ppm alone) of the same molecule?
A: 46.7

Q: And the KD ([1]; Table B1, 1 ppm alone)?
A: 10.0

Q: What about the 24 hr mort ([1]; Table B1, 2 ppm alone) of the same molecule?
A: 66.7

Q: What about the 48 hr mort ([1]; Table B1, 2 ppm alone) of the same molecule?
A: 80.0

Q: What about the KD ([1]; Table B1, 2 ppm alone) of the same molecule?
A: 13.3

Q: What about the 24 hr mort ([1]; Table B2, 0.0625 ppm alone) of the same molecule?
A: 0.0

Q: What about the 48 hr mort ([1]; Table B2, 0.0625 ppm alone) of the same molecule?
A: 0.0

Q: And the KD ([1]; Table B2, 0.0625 ppm alone)?
A: 0.0

Q: And the 24 hr mort ([1]; Table B2, 0.125 ppm alone)?
A: 0.0

Q: What about the 48 hr mort ([1]; Table B2, 0.125 ppm alone) of the same molecule?
A: 0.0

Q: And the KD ([1]; Table B2, 0.125 ppm alone)?
A: 0.0

Q: And the 24 hr mort ([1]; Table B2, 0.25 ppm alone)?
A: 10.0

Q: What about the 48 hr mort ([1]; Table B2, 0.25 ppm alone) of the same molecule?
A: 10.0

Q: What about the KD ([1]; Table B2, 0.25 ppm alone) of the same molecule?
A: 0.0

Q: And the 24 hr mort ([1]; Table B2, 0.5 ppm alone)?
A: 30.0

Q: What about the 48 hr mort ([1]; Table B2, 0.5 ppm alone) of the same molecule?
A: 50.0

Q: What about the KD ([1]; Table B2, 0.5 ppm alone) of the same molecule?
A: 0.0

Q: What about the 24 hr mort ([1]; Table B2, 1 ppm alone) of the same molecule?
A: 40.0

Q: What about the 48 hr mort ([1]; Table B2, 1 ppm alone) of the same molecule?
A: 70.0

Q: What about the KD ([1]; Table B2, 1 ppm alone) of the same molecule?
A: 0.0

Q: What about the 24 hr mort ([1]; Table B2, 2 ppm alone) of the same molecule?
A: 80.0

Q: And the 48 hr mort ([1]; Table B2, 2 ppm alone)?
A: 80.0

Q: And the KD ([1]; Table B2, 2 ppm alone)?
A: 0.0

Q: What about the mortality at 10 mg/m2 [2, 10] of the same molecule?
A: 24%

Q: And the “% Blood fed” value ([2]; Table B11, Rate 10 mg/m2)?
A: 31%

Q: What about the “24 hour % mort” value ([3]; Table B15, rates not given) of the same molecule?
A: 0%

Q: And the “48 hour % mort” value ([3]; Table B15, rates not given)?
A: 0%

Q: And the “% 1 hour KD” value ([3]; Table B15, rates not given)?
A: 100%

Q: And the “% 1 hour KD” value ([3]; Table B16, 1ug/bottle)?
A: 100%

Q: What about the “% 24 hour mortality” value ([3]; Table B16, 1ug/bottle) of the same molecule?
A: 0%
